The values below come from US10391070B2, “Compositions and methods for treating neurological diseases or injury” (MUSC FOUNDATION FOR RESEARCH DEVELOPMENT, priority 2012, dated 2019).

A value given as a limit tells only on which side of the number the result lay.

One series relates to HT22 cells. Briefly: In vitro neuroprotective activity against glutamate-induced cell death (MTS cell viability). It counts as cell-based, mouse. As to conditions: Mus musculus, HT-22; HT22 cells, 10 mM glutamate, 24 hrs, MTS; concentration producing 50% protection; read-out: Protection PC50. As for the experimental part:
(§1) The HT22 neuronal cell line is a subclone of HT4, derived from the mouse hippocampus (Morimoto and Koshland, 1990). […] HT22 cells were used. The cells were grown in Dulbecco's Modified Eagle's medium (DMEM/high glucose) supplemented with 10% fetal bovine serum (Hyclone) and 5 mL Antibiotic-Antimycotic (Amphotericin B, Penicillin, and Streptomycin; Invitrogen) at 37° C. in 5% CO2.
(§2) Cell viability was assessed by the ability of the viable cells to metabolize 3-(4,5-dimethylthiazol-2-yl)-5-(3-carboxymethoxyphenyl)-2(4-sulfophenyl)2-H-tetrazolium, inner salt (MTS), as described previously (Cory et al., 1991). The metabolism of tetrazolium salts is often used to measure cellular proliferation, but in the system used here, it has been previously shown to correlate well with cell viability as determined by trypan blue exclusion and colony-forming assays (Davis and Maher, 1994). Briefly, HT-22 cells were seeded onto 96-well plates at 5.0×10^3 cells per well in 75 μL of medium and maintained at 37° C. in 5% CO2 overnight prior to the initiation of experimental treatments. For glutamate toxicity testing, cells were subsequently treated with 25 μL of medium containing glutamate (monosodium glutamate, Sigma, 1 M stock concentration in media, to achieve a final concentration of 10 mM) plus inhibitors (stock in DMSO) and maintained at 37° C. in 5% CO2. For t-BuOOH toxicity testing, cells were subsequently treated with 25 μL of medium containing t-BuOOH (Sigma, 10 mM stock concentration, to achieve a final concentration of 50 μM) plus inhibitors (stock in DMSO) and maintained at 37° C. in 5% CO2 for 3 hours, after which the media was removed, cells washed gently with HBSS, the media replaced with standard culture media, and the cells returned to incubation at 37° C. in 5% CO2. For both glutamate and t-BuOOH treatments, 10 μl of MTS solution was added to each well 24 hrs after initial treatment, and the cells were maintained in growth medium for 2 h at 37° C. Absorbance at 490 nm was subsequently measured by a SpectraMax 190 plate reader (Molecular Devices). The growth medium without cells in the presence of MTS solution was used as solution background and untreated cells were considered the controls. Cell viability was calculated as a percentage compared with untreated controls. EC50 determinations were based on 12-point titrations using GraphPad Prism, and each experiment was repeated at least four times. Morphology of HT22 cells following treatments was determined by phase-contrast microscopy. Digital images of cells grown on cell culture plates were captured at 10× magnification.
The neuroprotective properties of VK and its derivatives were estimated through their protective effects against cell death in mouse neuronal HT22 cells induced by exposure to high levels of glutamate, which recapitulates a hallmark of the extracellular environment found in several neurodegenerative diseases and CNS injuries and is a well established model of neuronal oxidative stress. This investigation began by comparing the relative abilities of the two predominant naturally occurring forms of VK, VK1 and VK2, to prevent oxidative cell death. […] Several 1,4-naphthoquinones with various substitutions at the 2′ and 3′ positions were tested to determine the minimum structural requirement of the system and what the optimum scaffold for future developmental efforts and biological validation would be (FIG. 1B and Table 1). […] Substitution by a single methyl group at the 2′ position (VK3) improves the compound's ability to protect against cell death. Various other simple substituents at the 2′ and 3′ positions give the naphthoquinone structure the ability to prevent oxidative cell death at nanomolar concentrations (Table 1 and FIG. 16).
Regarding `O=C(NC1=CC(=O)c2ccccc2C1=O)c1cccc(Cl)c1` [Compound 3j, 3-chloro-N-(1,4-dioxo-1,4-dihydronaphthalen-2-yl)benzamide], the EC50 is 492 nM.
Still for that read-out and setting: then `O=C(Cc1ccccc1)NC1=CC(=O)c2ccccc2C1=O` [Compound 3k, N-(1,4-dioxo-1,4-dihydronaphthalen-2-yl)-2-phenylacetamide], with 658 nM.
For `O=C(Cc1ccc(-c2ccccc2)cc1)NC1=CC(=O)c2ccccc2C1=O` [Compound 3l, 2-([1,1′-biphenyl]-4-yl)-N-(1,4-dioxo-1,4-dihydronaphthalen-2-yl)acetamide], the EC50 was determined as 890 nM.
Consider `CCNC(=O)NC1=CC(=O)c2ccccc2C1=O` [Compound 4a, 1-(1,4-dioxo-1,4-dihydronaphthalen-2-yl)-3-ethylurea], for which the EC50 was 177 nM.
For `CC(C)NC(=O)NC1=CC(=O)c2ccccc2C1=O` [Compound 4b, 1-(1,4-dioxo-1,4-dihydronaphthalen-2-yl)-3-isopropylurea], the EC50 came out at 64 nM.
`O=C(NC1=CC(=O)c2ccccc2C1=O)Nc1ccccc1` [Compound 4c, 1-(1,4-dioxo-1,4-dihydronaphthalen-2-yl)-3-phenylurea]: the EC50 turned out to be 890 nM.
The same measure, in the same setting: to `O=C(NCc1ccccc1)NC1=CC(=O)c2ccccc2C1=O` [Compound 4d, 1-benzyl-3-(1,4-dioxo-1,4-dihydronaphthalen-2-yl)urea] belongs 740 nM.

Test system in a further series: not listed separately
Briefly: In vitro neurotoxicity without glutamate (MTS cell viability). It counts as cell-based, mouse. Conditions: mouse, HT22 neuronal cells (without glutamate); HT22 cells without glutamate, 24 hrs, MTS; concentration producing 50% toxicity; read-out: Toxicity TC50. As for the experimental part:
as §1, §2
Consider `O=C(NC1=CC(=O)c2ccccc2C1=O)c1cccc(Cl)c1` [Compound 3j, 3-chloro-N-(1,4-dioxo-1,4-dihydronaphthalen-2-yl)benzamide], for which the CC50 at 24 h was above 100000 nM.
Same read-out and setting: then `O=C(Cc1ccc(-c2ccccc2)cc1)NC1=CC(=O)c2ccccc2C1=O` [Compound 3l, 2-([1,1′-biphenyl]-4-yl)-N-(1,4-dioxo-1,4-dihydronaphthalen-2-yl)acetamide], with 42000 nM; and `CC(C)NC(=O)NC1=CC(=O)c2ccccc2C1=O` [Compound 4b, 1-(1,4-dioxo-1,4-dihydronaphthalen-2-yl)-3-isopropylurea], with 8000 nM; and `O=C(NC1=CC(=O)c2ccccc2C1=O)Nc1ccccc1` [Compound 4c, 1-(1,4-dioxo-1,4-dihydronaphthalen-2-yl)-3-phenylurea], with above 100000 nM.

The same series, now with this note: mouse; HT22 cells without glutamate, 24 hrs, MTS; concentration producing 50% toxicity; read-out: Toxicity TC50.
For `O=C(Cc1ccccc1)NC1=CC(=O)c2ccccc2C1=O` [Compound 3k, N-(1,4-dioxo-1,4-dihydronaphthalen-2-yl)-2-phenylacetamide], the CC50 at 24 h stood at 32000 nM.
Still for that read-out and setting: then `CCNC(=O)NC1=CC(=O)c2ccccc2C1=O` [Compound 4a, 1-(1,4-dioxo-1,4-dihydronaphthalen-2-yl)-3-ethylurea], with 5000 nM; and `O=C(NCc1ccccc1)NC1=CC(=O)c2ccccc2C1=O` [Compound 4d, 1-benzyl-3-(1,4-dioxo-1,4-dihydronaphthalen-2-yl)urea], with above 100000 nM.

The next series has as its system HT22 cells. The description is as above. It counts as cell-based, mouse. Conditions: HT22 cells. As for the experimental part: as §1, §2
As to `O=C(NC1=CC(=O)c2ccccc2C1=O)c1cccc(Cl)c1` [Compound 3j, 3-chloro-N-(1,4-dioxo-1,4-dihydronaphthalen-2-yl)benzamide], the “Safety Index TC50/PC50” value is listed as 203.
The same measure, in the same setting: to `O=C(Cc1ccccc1)NC1=CC(=O)c2ccccc2C1=O` [Compound 3k, N-(1,4-dioxo-1,4-dihydronaphthalen-2-yl)-2-phenylacetamide] belongs 49.
The same measure, in the same setting: to `O=C(Cc1ccc(-c2ccccc2)cc1)NC1=CC(=O)c2ccccc2C1=O` [Compound 3l, 2-([1,1′-biphenyl]-4-yl)-N-(1,4-dioxo-1,4-dihydronaphthalen-2-yl)acetamide] belongs 47; to `CCNC(=O)NC1=CC(=O)c2ccccc2C1=O` [Compound 4a, 1-(1,4-dioxo-1,4-dihydronaphthalen-2-yl)-3-ethylurea], 28.
Take `CC(C)NC(=O)NC1=CC(=O)c2ccccc2C1=O` [Compound 4b, 1-(1,4-dioxo-1,4-dihydronaphthalen-2-yl)-3-isopropylurea]: the “Safety Index TC50/PC50” value is on record as 125.
On the same count and under the same terms, to `O=C(NC1=CC(=O)c2ccccc2C1=O)Nc1ccccc1` [Compound 4c, 1-(1,4-dioxo-1,4-dihydronaphthalen-2-yl)-3-phenylurea] belongs 112; to `O=C(NCc1ccccc1)NC1=CC(=O)c2ccccc2C1=O` [Compound 4d, 1-benzyl-3-(1,4-dioxo-1,4-dihydronaphthalen-2-yl)urea], 135.

Another series has as its system zebrafish larvae. The experiment in a line: Zebrafish larval toxicity (NOEC, lethal dose). It counts as in vivo. As to conditions: 7 dpf zebrafish larvae, up to 5 h treatment. On the procedure: Using a 96-well plate, one zebrafish larva (7 dpf) was placed in each well in 100 μL of tank water (TW). 100 μL of each compound (0.5-15 μM) was then added to each well for 12 animals (one row) to give a final volume of 200 […]. A control row was tested for DMSO toxicity effects. […] Each drug was assessed for the no observed effect concentration (NOEC), the highest non-lethal dose resulting in no apparent toxic effects.
Zebrafish (AB strain) were obtained from the Zebrafish International Resource Center (supported by P40 RR012546 from NIH-NCRR). Zebrafish were maintained and crossed according to standard methods (Westerfield, 2000). Fertilized eggs were collected and placed in E3 embryo medium and positioned in an incubator set at 28.5° C. with a 14/10 h light/dark cycle (Kimmel et al., 1995). To determine the lethal dose of each compound, 96-well plates containing one zebrafish (7 days post-fertilization, dpf) per well in 100 μL of tank water were used. 100 μL of each compound (0.5 to 15 μM) was added to each well for 12 animals (one row) for a final volume of 200 μL. One row of larvae was used as DMSO only controls. […] All zebrafish studies were approved by the Medical University of South Carolina Institutional Animal Care and Use Committee (AR #2850) and performed in accordance with the guidelines.
Using a 96-well plate, one zebrafish larva (7 dpf) was placed in each well in 100 μL of tank water. 100 μL of each compound was then added to each well for 12 animals (one row) for a final volume of 200 μL. One row of zebrafish larvae was used as DMSO only controls. […] Toxicity was also measured in the mouse model by the NIH Anticonvulsant Screening Program at the National Institute of Neurological Disorders and Stroke (Stables and Kupferberg, 1997), according to the established NIH experimental procedures. Compounds were delivered into mice by intraperitoneal (i.p.) injection at a dose of 100 mg/kg in sterile 5% DMSO, 95% Neobee (Josey et al., 2013). Acute toxicity was assessed by monitoring the animals for impaired neuromuscular function by placing treated mice on a rod rotating at 6 rpm. […]
In turn, `CCCC(CCC)C(=O)NO` [2-propylpentane hydroxamic acid (VPHA), 2-propylpentane hydroxamic acid] displayed a Lethal dose above 0.05 mM.

The same series, now with this note: 7 dpf zebrafish larvae; highest sub-lethal dose.
As for `CCCC(CCC)C(=O)NO` [2-propylpentane hydroxamic acid (VPHA), 2-propylpentane hydroxamic acid], the “Highest concentration tested for anti-seizure activity” value is 0.05 mM.

The test system of the next series is PTZ-induced seizures. Briefly: PTZ-induced seizure (swim activity) model in zebrafish larvae. Format: in vivo, zebrafish (Danio rerio). As to conditions: PTZ-treated zebrafish larvae, pretreated 1 hr at NOEC. On the procedure:
The DanioVision locomotion tracking instrument with Ethovision XT software (Noldus) was used to measure the severity of the seizures by quantifying the locomotor activity of each fish.
In a 48-well plate, one 6-7 dpf larva was added per well. Compounds were given at a sub-lethal dose and treated for 1 h. Three control rows were included—tank water (TW) only, PTZ only and PTZ+VPA (2-4 mM final concentration of VPA). […] After 5 min, the plate was transferred to the Daniovision apparatus and the chamber light was turned on. After 2 min, Ethovision was used to determine the distance traveled (a marker of seizure of activity) by each fish for 15 min (25 frames per second). Velocity, duration of movement, and frequency of movement were also determined from the same recording. After measurement, fish were monitored visually for survival. The distance moved over the recording period with Ethovision XT software (Noldus) was averaged over 8 wells per treatment unless the fish was not detected.
In a 48-well plate, one 7 dpf zebrafish was added per well. Larvae were dosed with each compound at a sub-lethal dose 1 h prior to PTZ treatment. Three control rows were included with each experiment—tank water only control, PTZ only and PTZ+VPA (4 mM final concentration of VPA). […] After 5 min, the plate was transferred to the Daniovision instrument (Noldus Information Technology) and the chamber light was turned on. After 2 min, MediaRecorder (Noldus) was used to record video for 15 min. A small number of videos were acquired 25 frames per second, but the majority of the data was acquired at the frame rate of 60 frames per second. After recording, fish were monitored visually for survival. Ethovision XT software (Noldus) was used to track the fish movement from the video images in order to calculate the total distance traveled over 15 min. […] All experimental comparisons were made between animals from the same clutch.
On to `CCCC(CCC)C(=O)NO` [2-propylpentane hydroxamic acid (VPHA), 2-propylpentane hydroxamic acid], for which the Seizure suppression result is “No”.
